According to the supplement of paper PMC10307832:

Legend:
Experiment in all cases: relative viability (nuclei count vs DMSO), 5 days (fraction); higher = more cells survive
XMD13-2 + Foretinib = compound: C1CC1C(=O)NC2=NNC3=C2C=CC(=C3)C4=CC(=CC=C4)C(=O)NC5CC5 [XMD13-2] + COc1cc2c(Oc3ccc(NC(=O)C4(C(=O)Nc5ccc(F)cc5)CC4)cc3F)ccnc2cc1OCCCN1CCOCC1 [Foretinib] (partner 0.25 µM)
Outline: (§1)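 A single step with final 0.05% Triton X-100, 1% formaldehyde and 1 ug/ml Hoechst fixed the cells and stained nuclei 5 days after treatment. Lung cancer cell lines in 1536-well plates had been treated by pin tool the day after seeding with one drug alone or a fixed anchor-drug dose plus five library-drug doses (not always all listed) in √10 steps, and nuclei were counted on 4× images. Relative viability is the ratio of nuclei in treated wells to nuclei in vehicle wells, taken as the median of duplicate plates.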

XMD13-2 + Vorinostat = compound: C1CC1C(=O)NC2=NNC3=C2C=CC(=C3)C4=CC(=CC=C4)C(=O)NC5CC5 [XMD13-2] + O=C(CCCCCCC(=O)Nc1ccccc1)NO [Vorinostat] (partner 1 µM)
Outline: as §1

Dasatinib + Palbociclib = compound: Cc1nc(Nc2ncc(C(=O)Nc3c(C)cccc3Cl)s2)cc(N2CCN(CCO)CC2)n1 [Dasatinib] + CC(=O)c1c(C)c2cnc(Nc3ccc(N4CCNCC4)cn3)nc2n(C2CCCC2)c1=O [Palbociclib] (partner 0.5 µM)
Outline: as §1

Dasatinib + Navitoclax = compound: Cc1nc(Nc2ncc(C(=O)Nc3c(C)cccc3Cl)s2)cc(N2CCN(CCO)CC2)n1 [Dasatinib] + CC1(C)CCC(c2ccc(Cl)cc2)=C(CN2CCN(c3ccc(C(=O)NS(=O)(=O)c4ccc(N[C@H](CCN5CCOCC5)CSc5ccccc5)c(S(=O)(=O)C(F)(F)F)c4)cc3)CC2)C1 [Navitoclax] (partner 0.5 µM)
Outline: as §1

| Cell Line | relative viability (XMD13-2 + Foretinib; first compound 0.05 µM) | relative viability (XMD13-2 + Foretinib; first compound 0.1581 µM) | relative viability (XMD13-2 + Foretinib; first compound 0.5 µM) | relative viability (XMD13-2 + Foretinib; first compound 1.581 µM) | relative viability (XMD13-2 + Foretinib; first compound 5 µM) | relative viability (XMD13-2 + Vorinostat; first compound 0.05 µM) | relative viability (XMD13-2 + Vorinostat; first compound 0.1581 µM) | relative viability (XMD13-2 + Vorinostat; first compound 0.5 µM) | relative viability (XMD13-2 + Vorinostat; first compound 1.581 µM) | relative viability (XMD13-2 + Vorinostat; first compound 5 µM) | relative viability (Dasatinib + Palbociclib; first compound 0.005 µM) | relative viability (Dasatinib + Palbociclib; first compound 0.01581 µM) | relative viability (Dasatinib + Palbociclib; first compound 0.05 µM) | relative viability (Dasatinib + Palbociclib; first compound 0.1581 µM) | relative viability (Dasatinib + Palbociclib; first compound 0.5 µM) | relative viability (Dasatinib + Navitoclax; first compound 0.005 µM) | relative viability (Dasatinib + Navitoclax; first compound 0.01581 µM) | relative viability (Dasatinib + Navitoclax; first compound 0.05 µM) | relative viability (Dasatinib + Navitoclax; first compound 0.1581 µM) | relative viability (Dasatinib + Navitoclax; first compound 0.5 µM) |
| --- | --- | --- | --- | --- | --- | --- | --- | --- | --- | --- | --- | --- | --- | --- | --- | --- | --- | --- | --- | --- |
| LOU-NH91 | 1.01 | 0.979 | 1 | 0.943 | 1.04 | 1.05 | 0.971 | 0.935 | 0.852 | 1.02 | 0.569 | 0.51 | 0.553 | 0.498 | 0.369 | 0.758 | 0.595 | 0.531 | 0.506 | 0.317 |
| LU99A | 0.977 | 0.734 | 0.831 | 0.824 | 0.58 | 0.536 | 0.43 | 0.522 | 0.561 | 0.468 | 0.354 | 0.379 | 0.379 | 0.308 | 0.2 | 0.748 | 0.924 | 0.88 | 0.828 | 0.385 |
| LXF-289 | 0.979 | 0.973 | 0.897 | 0.98 | 1.06 | 0.864 | 0.767 | 0.86 | 0.959 | 0.808 | 0.603 | 0.676 | 0.672 | 0.384 | 0.118 | 1.01 | 0.969 | 0.923 | 0.408 | 0.171 |
| NCI-H23 | 1.21 | 0.83 | 1.02 | 1.06 | 1.01 | 0.681 | 0.46 | 0.625 | 0.646 | 0.675 | 0.536 | 0.476 | 0.38 | 0.34 | 0.271 | 0.828 | 0.716 | 0.896 | 0.496 | 0.315 |
| NCI-H322M | 1.06 | 1.02 | 0.909 | 0.971 | 1.09 | 0.927 | 0.984 | 0.914 |  | 1.05 | 0.435 | 0.382 | 0.365 | 0.326 | 0.228 | 1.28 | 1.27 | 1.31 | 0.524 | 0.237 |
| NCI-H441 | 1.1 | 0.902 | 0.956 | 1.06 | 0.661 | 0.854 | 1.01 | 0.97 | 0.87 | 0.839 | 0.265 | 0.191 | 0.2 | 0.14 | 0.115 | 0.579 | 0.544 | 0.456 | 0.241 | 0.135 |
| NCI-H460 | 1.1 | 1.11 | 1.05 | 1.06 | 1.01 | 1 | 0.723 | 0.828 | 0.696 | 0.766 | 0.14 | 0.112 | 0.0827 | 0.06 | 0.0635 | 0.828 | 0.912 | 0.815 | 0.563 | 0.217 |
| NCI-H520 | 0.876 | 0.754 | 0.536 | 0.637 | 0.402 | 0.799 | 0.743 | 0.698 | 0.869 | 0.414 | 0.172 | 0.156 | 0.131 | 0.1 | 0.119 | 0.946 | 0.644 | 0.555 | 0.273 | 0.27 |
| NCI-H647 | 1.36 | 1.13 | 1.31 | 1.21 | 0.796 | 0.706 | 0.59 | 0.822 | 0.746 | 0.425 | 0.314 | 0.22 | 0.162 | 0.0968 | 0.0812 | 0.983 | 0.731 | 0.392 | 0.307 | 0.152 |
| NCI-H727 | 1.21 | 0.903 | 0.946 | 0.738 | 0.737 | 1.23 | 1.09 | 1.41 | 1.33 | 1.22 | 0.553 | 0.455 | 0.523 | 0.388 | 0.281 | 0.404 | 0.266 | 0.186 | 0.139 | 0.143 |
| NCI-H838 | 1.19 | 1.05 | 1.01 | 1.04 | 1.01 | 0.839 | 0.661 | 0.756 | 0.713 | 0.763 | 0.193 | 0.156 | 0.182 | 0.148 | 0.141 | 1.03 | 0.791 | 0.709 | 0.389 | 0.21 |
| NCI-H1355 | 1.08 | 0.944 | 1.04 | 1.08 | 1.1 | 0.704 | 0.601 | 0.694 | 0.624 | 0.638 | 0.36 | 0.282 | 0.299 | 0.244 | 0.224 | 0.858 | 0.653 | 0.92 | 0.534 | 0.376 |
| NCI-H1395 | 0.983 | 1.02 | 1.05 | 0.992 | 1 | 0.732 | 0.871 | 0.651 | 0.594 | 0.707 | 0.594 | 0.588 | 0.535 | 0.443 | 0.304 | 1.01 | 0.971 | 0.91 | 0.609 | 0.476 |
| NCI-H1437 | 1.2 | 1.25 | 1.25 | 1.24 | 1.27 | 0.879 | 0.815 | 0.756 | 0.793 | 0.786 | 0.353 | 0.331 | 0.335 | 0.302 | 0.277 | 1.09 | 1.05 | 1.09 | 0.999 | 0.432 |
| NCI-H1650 | 1.36 | 1.07 | 1.15 | 0.967 | 1.81 | 0.661 | 0.584 | 0.576 | 0.594 | 0.555 | 0.282 | 0.12 | 0.184 | 0.138 | 0.177 | 1.26 | 0.934 | 0.83 | 0.506 | 0.387 |
| NCI-H1651 | 0.866 | 0.808 | 0.799 | 0.744 | 0.827 | 0.586 | 0.561 | 0.565 | 0.593 | 0.613 | 0.523 | 0.494 | 0.514 | 0.4 | 0.36 | 0.962 | 0.806 | 0.759 | 0.76 | 0.611 |
